Assay results published in patent publication US11040040B2, “Methods of treating cancer” (Corvus Pharmaceuticals, Inc., priority 2017, dated 2021).

Key:
[1] = tested on: adenosine signaling; assay: Functional inhibition of adenosine signaling in cancer patients; assay type: in vivo, human
Protocol: (§1) Adenosine signaling via A2A receptor (A2AR) on immune cells suppresses anti-tumor immunity and limits the efficacy of immunotherapy, chemotherapy, CAR-T, and vaccines. […] In embodiments, CD73 expression, CD8 infiltration, TREG distribution, and gene expression signatures are evaluated in serial tumor biopsy specimens.

[2] = tested on: syngeneic tumor models; assay: Syngeneic tumor models in mice, daily treatment; assay type: in vivo; conditions: multiple syngeneic tumor models
Protocol: as §1

[3] = tested on: peripheral T cell receptor repertoire; assay: Deep sequencing of TCRb in PBMCs, Morisita Index and clonality; assay type: in vivo, human; conditions: subjects with baseline peripheral blood clonality within normal healthy range (<0.2); PBMCs day 0 vs day 28 to 56
Protocol: FIGS. 3A-3C: Peripheral blood mononuclear cells (PBMCs) were collected at day 0 and between day 28 and 56. Deep sequencing of TCRb and Moristia and clonality calculations were performed by Adaptive Biotechnologies (Seattle, Wash., USA). T cell receptor (TCR) repertoire clonality was assessed.
Clonality is a measure of the dominance of specific T cell clones within a sample. It can range from 0-1, with 0 meaning each clone appears only once and 1 meaning the sample has only copies of a single clone. […] Clonality<0.2 is within the normal range, >0.2 means that a few clones dominate the sample. Clonality is conceptually the opposite of diversity. A clonality<0.2 is diverse because there a lot of different clones and the sample is not dominated by one or a few clone.
A Morisita Index score indicates the similarity between two samples. […] The Morisita Index can range from 0-1, with 0 meaning the samples are completely different (no shared clones) and a score of 1 meaning the samples are the same. In embodiments, a Morisita Index score>0.9 means very little change (e.g., within the range of sample to sample variation), while a Morisita Index score<0.9 means there was a change within the sample.

[4] = Phase 1/1b clinical trial, safety and tolerability (Step 1); assay type: in vivo, human; conditions: 48 patients treated in Step 1
Description: FIG. 5 is an illustration of an exemplary Phase 1/1B clinical trial design.
Expansion cohorts include renal cell and non-small cell lung cancer
FIG. 12 provides a summary of data regarding treatment-related adverse events.
as §1

[5] = tested on: non-small cell lung, melanoma, renal, triple negative breast, and other (bladder, prostate, head and neck, colorectal) tumors; assay: Phase 1/1b clinical trial, clinical activity / tumor regression; assay type: in vivo, human; conditions: single agent
Protocol: The waterfall plot includes all subjects from the clinical trial with available data, including all dosing levels and disease indications. CT scans of target lesions were performed prior to treatment and every 8 weeks post-treatment or at optimal time points. Target lesions were measured and the sum of longest dimensions (SLD) calculated. Subjects with regression of target tumor lesions are enriched for CD8 infiltration of tumors at baseline. […] The best change in SLD for each subject is shown in the waterfall plot colored by the percentage of CD8 infiltration in the center of the pre-treatment biopsy sample as measured by immunohistochemistry. […] A cutoff of 1% (rather than 4% for FIG. 1A) was used to classify subjects enriched for CD8 infiltration.
There were five prior regimens including TKIs, mTOR inhibitor and nivolumab. The patient ultimately failed each prior therapy.
as §1

Cc1ccc(-c2nc(N)nc3c2nnn3Cc2cccc(COC3CCOC3)n2)o1 (stereo not shown) [CPI-444]
inhibition of adenosine signaling [1]: functional inhibition of adenosine signaling
inhibition of tumor growth [2]: dose-dependent inhibition of tumor growth
Morisita Index (change in peripheral TCR repertoire) [3]: < 0.9
Grade 3 or 4 treatment related adverse events [4]: 1
tolerability [4]: well tolerated
clinical activity ([5]; including patients who previously failed anti-PD-1 therapy): Evidence of clinical activity
tumor response (FIG. 6, FIGS. 7A-7B) ([5]; nivolumab refractory renal cancer, five prior regimens including TKIs, mTOR inhibitor and nivolumab): tumor regression
